# Reference: patent publication US20130096067A1, “DROSOPHILA TUMOR STEM CELL MODEL AND USES THEREOF” (priority 2011, published 2013)
# Entries after “also recorded” stand apart in the source; their conditions may differ. Like-named read-outs stand apart in the source and are kept apart here.
# What was measured:
# Raf-1^gof TSCs = assay: Visualization of Raf-1^gof tumors in dissected guts by esg-GFP and Delta staining; assay type: in vivo, Drosophila
# Protocol: Samples were incubated 1 hour in 5% NDS blocking solution, overnight in primary antibody, 1.5 hours in secondary antibody and 6 minutes in DAPI. They were rinsed and washed between steps in PBS containing 0.1% Triton X-100. Finally they were placed in mounting media (Vectashield) and mounted for microscopy. Images were taken with a Leica TCS SP2 confocal microscope.
# (§1) Primary screening drugs were provided by the Harvard Institute for Chemistry and Cell Biology (ICCB; 480 known bioactives library), and the National Cancer Institute (NCI) Drug Therapeutics Program (library of 88 FDA-approved oncology drugs). Secondary assays were conducted with freshly prepared 10 mM stocks that were diluted 1:100 in fly food, giving a final concentration of 100 μM.
# (§2) Drugs were dissolved in 100% DMSO. Drugs were mixed 1:100 with molten fly food at 37° C. and then aliquoted to either 5 mL tubes or 1 mL wells of a 96-well plate.
# Control flies were treated with DMSO.
# Flies were treated with DMSO alone as a control.
# [1] = test system: Raf-1^gof intestinal tumors; settings: for Fold: luciferase relative to DMSO, fed three consecutive days in vials; for Log2 (fold) (luciferase activity, log2 of the fold difference relative to DMSO controls) / Fold (luciferase activity, fold difference relative to DMSO controls): screen of 480 ICCB compounds in vials, compounds fed to flies with one-day old Raf-1^gof tumors, esg-Gal4 luciferase
# [2] = test system: Raf-1^gof intestinal tumors; assay: Luciferase screen of FDA-approved (NCI) drugs in 96-well plates, flies with Raf-1^gof intestinal tumors; assay type: in vivo, Drosophila; settings: for Avg (3 + 6): average of Day 3 and Day 6 fold; for Log2 (fold): log2 of the Day 3 fold difference in luciferase relative to DMSO controls; for Day 3 Fold: luciferase activity relative to DMSO controls, single dose of drug for three days, 96-well plates; for Day 6 Fold: six-day protocol: single dose for three days, then another dose for three more days
# JNK signaling = assay: puc-LacZ reporter for JNK signaling in wild-type guts; assay type: in vivo, Drosophila; settings: EC cells
# Protocol: (§3) Flies were treated with DMSO alone as a control. […].
# (§4) For example, subjecting the fly intestine to the detergent dextran sulfate sodium (DSS) or to pathogen infection, induces ECs to activate the JNK stress-related pathway and to express IL-6 related cytokines (Unpaireds/Upds) (Jiang et al., 2009; Buchon et al., 2009; Apidianakis et al., 2009). The Upds activate JAK-STAT signaling in the ISCs, driving them to overproliferate. To determine if these same pathways are activated in response to FDA anti-cancer drugs, the puc-lacZ reporter was used to monitor JNK signaling, and a Gal-4 enhancer trap to monitor expression of Upd-3, the Upd cytokine preferentially expressed in the gut in response to injury (Jiang et al., 2009).
# JAK-STAT signaling = assay: upd3-GFP reporter for JAK-STAT signaling in wild-type guts; assay type: in vivo, Drosophila; settings: EC cells
# Protocol: as §3, §4
# ISCs/EBs = assay: Drug-induced ISC/EB expansion in animals with loss-of-function JAK allele hop^msv1; assay type: in vivo, Drosophila; settings: loss-of-function JAK allele hop^msv1 vs wild type
# Protocol: FIG. 7. FDA anti-cancer drugs that block TSCs can have differential effects on the microenvironment and growth of wild-type ISCs. […] Flies were treated with DMSO alone as a control. […]. […] C) The expansion of ISCs/EBs in response to bortezomib and paclitaxel is less severe in animals with a loss-of-function JAK allele, hop^msv1.
# Controls: yw,yv;attP2 (Ni et al., 2008). Gal4 drivers and reporters: esg-Gal4,UAS-GFP,tub-Gal80^ts (Micchelli et al., 2006), UAS-luc2(luciferase at attP2) (Markstein et al., 2008), puc-lacZE69 (Ring et al., 1993), #42685}, upd3-Gal4 (Agaisse et al., 2003). UAS constructs: UAS-Raf-1^gof (Brand et al., 1994), UAS-raptor-RNAi (TRIP stock JF01088), UAS-Dsor-RNAi (TRIP stock JF01697), UAS-Akt-RNAi (TRIP stock HMS00007). UAS-NotchDN (Jacobsen 1998). Mutants: hop^msv1 (Perrimon et al., 1986). Using the above stocks, an esg-Gal4 stock was created with both an inducible GFP reporter and an inducible Luciferase reporter: esg-Gal4,UAS-GFP,tub-Gal80^ts; UAS-luc2. For the chemical screens the following cross was performed to create Raf-1^gof intestinal tumors marked with GFP and luciferase: UAS-Raf-1^gof X esg-Gal4,UAS-GFP,tub-Gal80^ts; UAS-luc2. […]
# Raf-1^gof tumor cells = assay: esg-Gal4 luciferase assay in whole-fly lysates of control and drug-treated flies (validation and replicate assays); assay type: in vivo, Drosophila
# Protocol: as §1, §2
# Flies were anesthetized and transferred in pools of 3 to 96-well plates containing 100 μL of glo lysis buffer (Promega E2661) and homogenized with a multiple homogenizer (Burkard Scientific BS00253) for 3-5 minutes. The plates were then centrifuged for 5 minutes at 4,000 rpm, and the lysates were then transferred to new 96-well “master” plates. Firefly luciferase assays were conducted with 20 μL of lysate as specified by Promega. Luminescence was counted using the Molecular Devices Analyst GT plate reader.
# To exploit the TSC model for in vivo chemical screens, a high-throughput method was developed to track tumor growth, using a luciferase reporter assay instead of the conventional method of visualizing tumors with GFP. […] The esg-Gal4 driver was employed to express luciferase in the TSCs and the effects of various compounds were compared by measuring luciferase in homogenates of control and drug-treated flies.
# [3] = esg-GFP in dissected guts, DMSO control
# [4] = Table 3 summary of hits, Screen ICCB
# [5] = assessed three days later, averaged from multiple wells
Compound,effect on Raf-1^gof tumor cells / tumor growth (Raf-1^gof TSCs; [3]),"Fold [1, 4]","Log2 (fold) (luciferase activity, log2 of the fold difference relative to DMSO controls) ([1]; assessed three days later)","Fold (luciferase activity, fold difference relative to DMSO controls) [1, 5]",Avg (3 + 6) [2],Log2 (fold) [2],Day 3 Fold [2],Day 6 Fold [2],expression of puc-lacZ reporter (JNK signaling) (JNK signaling),expression of upd3-GFP / Upd-3 reporter (JAK-STAT signaling) (JAK-STAT signaling),expansion of ISCs/EBs in hop^msv1 animals (ISCs/EBs),also measured
"Nc1ncnc2c1c(I)cn2[C@@H]1O[C@H](CO)[C@@H](O)[C@H]1O [5-iodotubercidin, reference compound]",reduced tumor growth,0.530 fold,−0.917,0.530,–,–,–,–,–,–,–,–
CC(C)C[C@H](NC(=O)[C@H](Cc1ccccc1)NC(=O)c1cnccn1)B(O)O [Bortezomib],–,–,–,–,0.607 fold,−2.013,0.248 fold,0.967 fold,inducing expression of puc-lacZ; also recorded: induced expression of both the JNK puc-lacZ reporter and the Upd-3 reporter,"inducing expression of puc-lacZ (red, upper panel) and upd3-GFP; also recorded: induced expression of both the JNK puc-lacZ reporter and the Upd-3 reporter",less severe,–
"C[C@H](NC(=O)Cc1cc(F)cc(F)c1)C(=O)N[C@H]1N=C(c2ccccc2)c2ccccc2N(C)C1=O [Compound E, reference compound]",augmented tumor growth; also recorded: increased tumor growth; also recorded: dramatic expansion of the tumor,2.696 fold,–,–,–,–,–,–,–,–,–,"effect on luciferase activity (Raf-1^gof tumor cells; whole-animal extracts vs DMSO controls): augmented tumor growth and luciferase activity; Log2 (fold) of luciferase activity relative to DMSO controls ([1]; ICCB compounds fed in vials to flies with one-day old Raf-1^gof tumors, assessed three days later): 1.431; Fold (luciferase activity relative to DMSO controls) ([1]; ICCB compounds fed in vials to flies with one-day old Raf-1^gof tumors, assessed three days later, averaged from multiple wells): 2.696 fold; Log2 (fold) [1, 4]: 1.431"
CC(=O)O[C@H]1C(=O)[C@@]2(C)[C@H]([C@H](OC(=O)c3ccccc3)[C@]3(O)C[C@H](OC(=O)[C@H](O)[C@@H](NC(=O)c4ccccc4)c4ccccc4)C(C)=C1C3(C)C)[C@]1(OC(C)=O)CO[C@@H]1C[C@@H]2O [Paclitaxel],–,0.274 fold,−1.870,0.274,0.695 fold,−1.808,0.285 fold,1.104 fold,inducing expression of puc-lacZ; also recorded: induced expression of both the JNK puc-lacZ reporter and the Upd-3 reporter,"inducing expression of puc-lacZ (red, upper panel) and upd3-GFP; also recorded: induced expression of both the JNK puc-lacZ reporter and the Upd-3 reporter",less severe,–
COc1cc2c(c(OC)c1OC)-c1ccc(OC)c(=O)cc1[C@@H](NC(C)=O)CC2 [colchicine],–,–,–,–,–,–,–,–,–,–,–,effect on luciferase activity (Raf-1^gof tumor cells; in vivo): steep drop in luciferase activity; loss of luciferase activity (Raf-1^gof tumor cells; in vivo): about 80%; effect on Raf-1^gof tumor cells / tumor growth (Raf-1^gof TSCs; in vivo): eliminated virtually all of the tumor cells; also recorded: eliminates virtually all of the Raf-1^gof tumor cells; also recorded: virtually all of the tumor cells were lost
Bleomycin,–,–,–,–,0.521 fold,0.060,1.043 fold,0.000 fold,induced JNK and JAK-STAT signaling,induced JNK and JAK-STAT signaling,–,effect on Delta positive TSCs (Raf-1^gof TSCs; Delta staining of dissected guts): failed to block TSCs
